According to ChEMBL document CHEMBL4414666, “Structure-Activity Relationships of Pentacyclic Triterpenoids as Inhibitors of Cyclooxygenase and Lipoxygenase Enzymes” (J Nat Prod, 2019):

Legend:
[1] = target: T1, Polyunsaturated fatty acid lipoxygenase ALOX15B (Homo sapiens, UniProt O15296); assay: (§1) Inhibition of human recombinant N-terminal His-tagged 15-LOX2 expressed in Escherichia coli using arachidonic acid as substrate preincubated for 5 mins followed by substrate addition measured after 20 mins in dark by ferric ion oxidation-xylenol orange assay
T1 sequence (O15296 whole entry): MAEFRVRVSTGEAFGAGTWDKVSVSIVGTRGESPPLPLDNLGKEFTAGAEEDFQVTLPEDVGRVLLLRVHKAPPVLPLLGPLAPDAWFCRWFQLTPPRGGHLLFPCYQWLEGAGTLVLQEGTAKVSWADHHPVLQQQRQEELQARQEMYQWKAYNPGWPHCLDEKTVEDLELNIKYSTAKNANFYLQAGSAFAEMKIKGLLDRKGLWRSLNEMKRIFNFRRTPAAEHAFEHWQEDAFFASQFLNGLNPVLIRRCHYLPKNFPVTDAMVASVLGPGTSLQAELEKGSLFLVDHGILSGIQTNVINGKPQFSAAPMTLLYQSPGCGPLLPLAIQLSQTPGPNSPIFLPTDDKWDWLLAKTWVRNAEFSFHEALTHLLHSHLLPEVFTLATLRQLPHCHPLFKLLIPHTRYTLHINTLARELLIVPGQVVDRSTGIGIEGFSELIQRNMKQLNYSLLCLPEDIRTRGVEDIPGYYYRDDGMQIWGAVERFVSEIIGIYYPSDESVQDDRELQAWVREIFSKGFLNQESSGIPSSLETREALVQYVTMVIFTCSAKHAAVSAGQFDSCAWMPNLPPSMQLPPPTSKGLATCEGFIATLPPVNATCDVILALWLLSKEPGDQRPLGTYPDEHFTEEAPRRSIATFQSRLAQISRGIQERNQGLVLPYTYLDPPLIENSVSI

[2] = target: T2, Polyunsaturated fatty acid 5-lipoxygenase (Homo sapiens, UniProt P09917); assay: Inhibition of human recombinant 5-LOX expressed in insect cells assessed as decrease in production of 5-HPETE and 5-HETE using arachidonic acid as substrate preincubated for 5 mins followed by substrate addition measured after 20 mins in dark by ferric ion oxidation-xylenol orange method
T2 sequence (P09917 whole entry): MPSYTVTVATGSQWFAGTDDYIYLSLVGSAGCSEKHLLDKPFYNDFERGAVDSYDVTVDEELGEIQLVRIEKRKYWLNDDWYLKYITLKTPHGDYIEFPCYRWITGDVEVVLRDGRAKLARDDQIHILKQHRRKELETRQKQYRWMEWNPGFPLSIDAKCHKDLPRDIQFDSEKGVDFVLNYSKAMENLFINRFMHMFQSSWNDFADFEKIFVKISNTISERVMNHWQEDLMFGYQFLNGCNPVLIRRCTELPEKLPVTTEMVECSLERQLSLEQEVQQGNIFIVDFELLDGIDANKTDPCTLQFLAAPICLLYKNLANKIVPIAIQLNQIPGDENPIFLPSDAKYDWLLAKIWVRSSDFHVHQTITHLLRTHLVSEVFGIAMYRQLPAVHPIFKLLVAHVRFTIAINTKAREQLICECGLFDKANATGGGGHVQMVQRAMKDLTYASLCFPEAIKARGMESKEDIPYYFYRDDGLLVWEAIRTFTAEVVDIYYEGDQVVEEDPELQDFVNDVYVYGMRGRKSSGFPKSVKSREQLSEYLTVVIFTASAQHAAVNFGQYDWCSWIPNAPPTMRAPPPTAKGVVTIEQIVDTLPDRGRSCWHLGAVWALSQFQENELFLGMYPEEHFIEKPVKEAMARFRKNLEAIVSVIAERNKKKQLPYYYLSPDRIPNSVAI

[3] = target: T3, Polyunsaturated fatty acid lipoxygenase ALOX15B (Homo sapiens) (UniProt O15296); assay: as §1, with “coli assessed as residual activity at 42 uM” for “coli”, “assay relative to control” for “assay”
T3 sequence (whole entry): T1 sequence (O15296 whole entry)

[4] = target: T4, Polyunsaturated fatty acid 5-lipoxygenase (Homo sapiens) (UniProt P09917); assay: Inhibition of human recombinant 5-LOX expressed in insect cells assessed residual activity using arachidonic acid at 42 uM as substrate preincubated for 5 mins followed by substrate addition measured after 20 mins in dark by ferric ion oxidation-xylenol orange method relative to control
T4 sequence (whole entry): T2 sequence (P09917 whole entry)

[5] = target: T5, Prostaglandin G/H synthase 1 (Ovis aries, UniProt P05979);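 note: recombinant ovine COX1 enzyme, PGE2 formed from arachidonic acid quantified by LC-MS, 10 min inhibitor preincubation then 45 min reaction, inhibition seen as reduced PGE2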
T5 sequence (P05979 whole entry): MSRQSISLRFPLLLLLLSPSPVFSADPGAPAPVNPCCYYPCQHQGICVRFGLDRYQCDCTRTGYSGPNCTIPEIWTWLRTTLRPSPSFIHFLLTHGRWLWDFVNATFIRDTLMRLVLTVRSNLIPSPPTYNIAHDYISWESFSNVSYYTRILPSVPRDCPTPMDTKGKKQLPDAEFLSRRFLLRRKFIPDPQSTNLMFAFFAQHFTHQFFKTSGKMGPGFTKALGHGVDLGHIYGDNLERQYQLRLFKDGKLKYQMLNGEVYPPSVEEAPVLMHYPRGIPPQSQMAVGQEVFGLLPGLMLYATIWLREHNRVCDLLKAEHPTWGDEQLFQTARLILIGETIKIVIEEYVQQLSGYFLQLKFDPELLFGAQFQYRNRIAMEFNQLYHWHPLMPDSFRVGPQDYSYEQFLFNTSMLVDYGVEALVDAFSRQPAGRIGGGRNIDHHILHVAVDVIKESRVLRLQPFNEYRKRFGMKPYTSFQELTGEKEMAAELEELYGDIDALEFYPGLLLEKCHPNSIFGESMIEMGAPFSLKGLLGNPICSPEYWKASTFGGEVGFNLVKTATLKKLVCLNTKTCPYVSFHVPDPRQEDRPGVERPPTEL
Description: Inhibition of ovine recombinant COX1 assessed as decrease in formation of PGE2 using arachidonic acid as substrate preincubated for 10 mins followed by substrate addition measured after 45 mins by LC-MS analysis

[6] = target: T6, Prostaglandin G/H synthase 2 (Homo sapiens, UniProt P35354); assay: biochemical; type: cell-based, Sf21;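 note: recombinant enzyme produced in baculovirus-infected Sf21 cells, arachidonic acid substrate, PGE2 output quantified by LC-MS after 45 min, compounds preincubated 10 min beforehand, lower PGE2 means inhibition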
T6 sequence (P35354 whole entry): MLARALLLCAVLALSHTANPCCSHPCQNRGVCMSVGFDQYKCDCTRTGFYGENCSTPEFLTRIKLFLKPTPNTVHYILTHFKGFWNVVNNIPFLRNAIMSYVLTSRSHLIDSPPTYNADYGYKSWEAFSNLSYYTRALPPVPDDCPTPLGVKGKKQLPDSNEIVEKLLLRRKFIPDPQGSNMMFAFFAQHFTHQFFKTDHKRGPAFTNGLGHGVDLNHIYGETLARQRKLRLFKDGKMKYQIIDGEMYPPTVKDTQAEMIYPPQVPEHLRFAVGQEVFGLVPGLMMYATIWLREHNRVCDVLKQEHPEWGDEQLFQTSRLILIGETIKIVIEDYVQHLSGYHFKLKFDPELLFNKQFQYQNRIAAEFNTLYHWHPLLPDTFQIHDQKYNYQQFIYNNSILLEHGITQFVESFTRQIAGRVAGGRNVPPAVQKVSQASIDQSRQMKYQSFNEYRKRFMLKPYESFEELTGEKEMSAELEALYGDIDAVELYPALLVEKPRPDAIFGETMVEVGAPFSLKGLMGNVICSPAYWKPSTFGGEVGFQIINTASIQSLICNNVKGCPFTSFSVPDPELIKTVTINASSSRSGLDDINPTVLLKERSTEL
Description: Inhibition of human recombinant COX2 expressed in baculovirus infected sf21 cells assessed as decrease in PGE2 formation using arachidonic acid as substrate preincubated for 10 mins followed by substrate addition measured after 45 mins by LC-MS analysis

SMILES	IC50 [1]	IC50 ([2]; read-out: IC50)	Activity [3]	Activity [4]	IC50 [5]	IC50 ([6]; sf21)	IC50 ([6]; read-out: IC50)	IC50 ([1]; read-out: IC50)	IC50 [2]
CC1(C)CC[C@]2(C)CC[C@]3(C)C(=CC[C@@H]4[C@@]5(C)CC[C@H](O)[C@](C)(CO)[C@@H]5CC[C@]43C)[C@@H]2C1	Not Active	30.6 µM	100%	29.8%	Not Active	Not Active			
CC1(C)CC[C@]2(C)CC[C@]3(C)C(=CC(=O)[C@@H]4[C@@]5(C)CC[C@H](O)C(C)(C)[C@@H]5CC[C@]43C)[C@@H]2C1	Not Active	> 40 µM	100%	70.4%	Not Active		> 40 µM		
CC1(C)CC[C@]2(C(=O)O)CC[C@]3(C)C(=CC[C@@H]4[C@@]5(C)C[C@H](O)[C@H](O)[C@@](C)(C(=O)O)[C@@H]5CC[C@]43C)[C@@H]2C1	Not Active	30.4 µM	100%	40.7%	Not Active		> 40 µM		
CC1(C)CC[C@]2(C(=O)O)CC[C@]3(C)C(=CC[C@@H]4[C@@]5(C)C[C@H](O)[C@H](O)[C@@](C)(CO)[C@@H]5CC[C@]43C)[C@@H]2C1	Not Active	> 40 µM	100%	71.9%	Not Active		> 40 µM		
CC1(C)[C@@H](O)CC[C@]2(C)[C@H]3C(=O)C=C4[C@@H]5C[C@@](C)(CO)CC[C@]5(C)CC[C@@]4(C)[C@]3(C)CC[C@@H]12	Not Active	25.7 µM	100%	25.2%	Not Active		> 40 µM		
CC1(C)CC[C@]2(C)CC[C@]3(C)C(=CC[C@@H]4[C@@]5(C)CC[C@H](O)C(C)(C)[C@@H]5CC[C@]43C)[C@@H]2C1 [beta-AMYRIN]		> 40 µM	97.2%	73.3%	Not Active	Not Active		> 40 µM	
CC1(C)CC[C@]2(C(=O)O)CC[C@]3(C)C(=CC[C@@H]4[C@@]5(C)CC[C@H](O)[C@@](C)(C=O)[C@@H]5CC[C@]43C)[C@@H]2C1	Not Active		100%	100%	Not Active	Not Active			Not Active
CC1(C)CC[C@]2(CO)CC[C@]3(C)C(=CC[C@@H]4[C@@]5(C)CC[C@H](O)C(C)(C)[C@@H]5CC[C@]43C)[C@@H]2C1 [ERYTHRODIOL]	Not Active	> 40 µM	100%	60.7%	Not Active	Not Active			
C[C@H]1[C@H](C)CC[C@]2(C)CC[C@]3(C)C(=CC[C@@H]4[C@@]5(C)CC[C@H](O)C(C)(C)[C@@H]5CC[C@]43C)[C@H]12	Not Active	> 40 µM	100%	55.5%	Not Active	Not Active			
C[C@H]1[C@H](C)CC[C@]2(C)CC[C@]3(C)C(=CC[C@@H]4[C@@]5(C)CCC(=O)C(C)(C)[C@@H]5CC[C@]43C)[C@H]12	Not Active		100%	100%	Not Active		> 40 µM		Not Active
CC1(C)[C@@H](O)CC[C@]2(C)[C@H]3CC=C4[C@@H]5C[C@@](C)(CO)CC[C@]5(C)CC[C@@]4(C)[C@]3(C)CC[C@@H]12	Not Active	31.8 µM	100%	34.8%	Not Active		> 40 µM		
CC1(C)CC[C@]2(C(=O)O)CC[C@]3(C)C(=CC[C@@H]4[C@@]5(C)CC[C@H](O)[C@@](C)(CO)[C@@H]5CC[C@]43C)[C@@H]2C1 [HEDERAGENIN]		> 40 µM	64.7%	59.8%	Not Active	Not Active		> 40 µM	
